Experimental data published in publication PMC11637191, “The pH-dependence of efflux ratios determined with bidirectional transport assays across cellular monolayers” (International Journal of Pharmaceutics: X, 2024).
Like-named read-outs stand apart in the source and are kept apart here. Blank lines part the entries; values can stand above or below the compound they belong to.

Columns and labels:
[1] = test system: MDCK-II-MDR1 cells
[2] = test system: MDCK-II-MDR1 cells; details: intrinsic membrane permeability, calculated from Papp, A⟶B with elacridar
Procedure: Briefly, cells (passage 20–40) were seeded onto 12-well PET inserts (CellQART, Northeim, Germany; pore size: 0.4 μm; filter thickness: 11.5 μm, 100×10^6 pores/cm^2) at a density of 1.5×10^5 cells/insert. […] One day before the experiments, the cell medium was refreshed. For P0 determination, inserts were pre-incubated with the P-gp inhibitor elacridar (2 μM) for 30 min in HBSS pH 7.4. The transport rates in both directions of the test compounds were determined in duplicate or triplicate for 4–5 different pH values between pH 5 and pH 9. The transport buffer was HBSS buffered with 10 mM MES for pH 5 and 6, 25 mM HEPES for pH 7, 7.4 and 8, and 10 mM TAPS for pH 9. Stock solutions were prepared in the transport buffer and pre-warmed to 37 °C. Additional stock solutions with 2 μM elacridar were prepared at suitable pH values to measure P0 values in tandem. The pH of all buffer and stock solutions, as well as the pH of all samples after experiment completion, was controlled with a rapid pH automated pH meter (Hudson Robotics, Inc., Springfield, NJ, USA). Inserts were used in 12-well plates (TPP Techno Plastic Products AG, Trasadingen, Switzerland). […] Timestep length was determined individually for each compound and direction measured to ensure sink conditions. […]
to ensure that measured transport rates would not be affected by active efflux .

[3] = determined 25 °C; etoposide acidic, acebutolol basic; ref Avdeef, 2012; cited from earlier work
[4] = in vitro; details: dog
[5] = test system: P-gp (MDR1); test: in vitro; details: dog
[6] = test system: MDCK-MDR1 cells; details: cited from earlier work
[7] = Calculation of neutral fraction (fn)
[8] = test system: MDCK-MDR1 cells; details: dog, MDCK-MDR1, pH 7.4
[9] = test system: P-gp (MDR1); test: in vitro; details: dog, MDCK-MDR1, Papp, B⟶A
[10] = no reference given; cited from earlier work

logPapp, A⟶B ([1]; pH 6, iso-pH method): -6.93 P in cm/s
logPapp, B⟶A ([1]; pH 6, iso-pH method): -5.50 P in cm/s
logPapp, A⟶B ([1]; pH 7.4, iso-pH method): -6.97 P in cm/s
logPapp, B⟶A ([1]; pH 7.4, iso-pH method): -5.39 P in cm/s
logPapp, A⟶B ([1]; pH 8, iso-pH method): -6.86 P in cm/s
logPapp, B⟶A ([1]; pH 8, iso-pH method): -5.55 P in cm/s
logPapp, A⟶B ([1]; pH 9, iso-pH method): -6.71 P in cm/s
logPapp, B⟶A ([1]; pH 9, iso-pH method): -6.37 P in cm/s
LogP0 [2]: -6.3 P in cm/s
recovery ([4]; MDCK-MDR1, pH 6): 92 to 97%
recovery ([4]; MDCK-MDR1, pH 7.4): 98 to 108%
recovery ([4]; MDCK-MDR1, pH 8): 83 to 98%
recovery ([4]; MDCK-MDR1, pH 9): 60 to 71%
Papp ([5]; MDCK-MDR1, pH 6): 0.12 ± 0.02 ×10⁻⁶ cm/s
Papp B→A ([5]; MDCK-MDR1, pH 6): 3.16 ± 0.19 ×10⁻⁶ cm/s
efflux ratio ([5]; MDCK-MDR1, pH 6): 26.8
Papp ([5]; MDCK-MDR1, pH 7.4): 0.11 ± 0.02 ×10⁻⁶ cm/s
Papp B→A ([5]; MDCK-MDR1, pH 7.4): 4.05 ± 1.18 ×10⁻⁶ cm/s
efflux ratio ([5]; MDCK-MDR1, pH 7.4): 37.6
Papp ([5]; MDCK-MDR1, pH 8): 0.14 ± 0.04 ×10⁻⁶ cm/s
Papp B→A ([5]; MDCK-MDR1, pH 8): 2.8 ± 0.08 ×10⁻⁶ cm/s
efflux ratio ([5]; MDCK-MDR1, pH 8): 20.2
Papp ([5]; MDCK-MDR1, pH 9): 0.19 ± 0.08 ×10⁻⁶ cm/s
Papp B→A ([5]; MDCK-MDR1, pH 9): 0.43 ± 0.03 ×10⁻⁶ cm/s
efflux ratio ([5]; MDCK-MDR1, pH 9): 2.2
fn ([7]; neutral fraction at pH 7.4): 84%
Structure (SMILES): COc1cc([C@@H]2c3cc4c(cc3[C@@H](O[C@@H]3O[C@@H]5CO[C@@H](C)O[C@H]5[C@H](O)[C@H]3O)[C@H]3COC(=O)[C@H]23)OCO4)cc(OC)c1O [Etoposide]
pKa [3]: 8.53
Papp, inhibitor ([6]; with inhibitor, pH 7.4 iso-method, ref Troutman and Thakker (2003)): 6.6e-07 cm/s
Papp, inhibitor ([6]; with inhibitor, pH 7.4 iso-method, ref Wang et al. (2005)): 3e-07 cm/s
Papp, B⟶A ([6]; without inhibitor, pH 7.4 iso-method, ref Troutman and Thakker (2003)): 1.04e-05 cm/s
Papp, B⟶A ([6]; without inhibitor, pH 7.4 iso-method, ref Wang et al. (2005)): 1.8e-06 cm/s

Structure (SMILES): COc1cc2c(c(OC)c1OC)-c1ccc(OC)c(=O)cc1[C@@H](NC(C)=O)CC2 [Colchicine]
LogP0 [2]: -5.9 P in cm/s
Factor difference [8]: 7
recovery ([4]; MDCK-MDR1, pH 5): 100 to 120%
recovery ([4]; MDCK-MDR1, pH 6): 78 to 109%
recovery ([4]; MDCK-MDR1, pH 7): 98 to 110%
recovery ([4]; MDCK-MDR1, pH 8): 96 to 102%
recovery ([4]; MDCK-MDR1, pH 9): 92 to 100%
Papp ([5]; MDCK-MDR1, pH 5): 0.52 ± 0.15 ×10⁻⁶ cm/s
Papp B→A ([5]; MDCK-MDR1, pH 5): 2.12 ± 0.14 ×10⁻⁶ cm/s
Papp ([5]; MDCK-MDR1, pH 6): 0.2 ± 0.04 ×10⁻⁶ cm/s
Papp B→A ([5]; MDCK-MDR1, pH 6): 4.42 ± 0.33 ×10⁻⁶ cm/s
Papp ([5]; MDCK-MDR1, pH 7): 0.16 ± 0.04 ×10⁻⁶ cm/s
Papp B→A ([5]; MDCK-MDR1, pH 7): 5.03 ± 0.58 ×10⁻⁶ cm/s
Papp ([5]; MDCK-MDR1, pH 8): 0.2 ± 0.05 ×10⁻⁶ cm/s
Papp B→A ([5]; MDCK-MDR1, pH 8): 6.33 ± 0.62 ×10⁻⁶ cm/s
Papp ([5]; MDCK-MDR1, pH 9): 0.41 ± 0.06 ×10⁻⁶ cm/s
Papp B→A ([5]; MDCK-MDR1, pH 9): 5.89 ± 1.14 ×10⁻⁶ cm/s
Papp [9]: 6.33 ×10⁻⁶ cm/s
Papp, B⟶A ([6]; MDCK-MDR1, pH 7.4): 1.19e-05 cm/s
Papp, inhibitor ([6]; MDCK-MDR1, pH 7.4): 1.64e-06 cm/s
fn ([7]; neutral fraction at pH 8): 100%

Structure (SMILES): COc1ccc2c(c1)c(CC(=O)O)c(C)n2C(=O)c1ccc(Cl)cc1 [Indomethacin]
logKhex/water [10]: 0.58
